Laboratory results taken from patent US20230143604A1, “QW DOSING OF GIP RECEPTOR AGONIST PEPTIDE COMPOUNDS AND USES THEREOF” (TAKEDA PHARMACEUTICAL COMPANY LIMITED, priority 2020, published 2023).
Starred links: 1 amine or outer side, 2 acyl side, 3 side chain; linkers in the order of their positions; H or OH if unused. Non-standard residues stand in square brackets, D forms with d. Residues, ends and D or L forms follow the SMILES beside them. Groups on a side chain read outwards from the residue. *: point of attachment. C20 diacid = O=C(O)CCCCCCCCCCCCCCCCCCC(=O)*; C18 diacid = O=C(O)CCCCCCCCCCCCCCCCC(=O)*; γGlu = O=C(O)[C@H](CCC(=O)[*:2])N[*:1]; NMeY = CN[C@@H](Cc1ccc(O)cc1)C(=O)O; AEEA = NCCOCCOCC(=O)O; Aib = CC(C)(N)C(=O)O

Assay: physchem
In short: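 3 mg of peptide treated with 100 μL portions of 200 mM phosphate buffer pH 7.4, sonicating/vortexing up to 1 min, with further buffer added until fully dissolved. Solubility then quantified by HPLC.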

Work on `CC[C@H](C)[C@H](NC(=O)[C@H](CO)NC(=O)[C@H](Cc1ccc(O)cc1)NC(=O)[C@H](CC(=O)O)NC(=O)[C@H](CO)NC(=O)[C@@H](NC(=O)[C@H](Cc1ccccc1)NC(=O)[C@@H](NC(=O)CNC(=O)[C@H](CCC(=O)O)NC(=O)C(C)(C)NC(=O)[C@@H](N)Cc1ccc(O)cc1)[C@@H](C)O)[C@@H](C)CC)C(=O)N[C@@H](C)C(=O)NC(C)(C)C(=O)N[C@@H](CC(=O)O)C(=O)N[C@@H](CCCCN)C(=O)N[C@@H](C)C(=O)N[C@@H](C)C(=O)N[C@@H](CCC(N)=O)C(=O)N[C@@H](C)C(=O)N[C@@H](CCCCNC(=O)COCCOCCNC(=O)COCCOCCNC(=O)CC[C@H](NC(=O)CC[C@H](NC(=O)CCCCCCCCCCCCCCCCC(=O)O)C(=O)O)C(=O)O)C(=O)N[C@@H](Cc1ccccc1)C(=O)N[C@H](C(=O)N[C@@H](CCC(=O)O)C(=O)N[C@@H](Cc1c[nH]c2ccccc12)C(=O)N[C@@H](CC(C)C)C(=O)N[C@@H](CC(C)C)C(=O)N[C@@H](C)C(=O)N[C@@H](CCC(N)=O)C(=O)N[C@@H](CCCNC(=N)N)C(=O)NCC(=O)O)C(C)C` [Compound 158] (H-Y[Aib]EGTFISDYSIA[Aib]DKAAQAK([AEEA-AEEA-γGlu-γGlu-C18 diacid])FVEWLLAQRG-OH) yielded a solubility (pH 7.4) of at least 15 mg/mL and a solubility (pH 7.4, aqueous buffer) of at least 30 mg/mL.

`CC[C@H](C)[C@H](NC(=O)[C@H](Cc1ccccc1)NC(=O)[C@@H](NC(=O)CNC(=O)[C@H](CCC(=O)O)NC(=O)C(C)(C)NC(=O)[C@H](Cc1ccc(O)cc1)NC)[C@@H](C)O)C(=O)N[C@@H](CO)C(=O)N[C@@H](CC(=O)O)C(=O)N[C@@H](Cc1ccc(O)cc1)C(=O)N[C@@H](CO)C(=O)N[C@H](C(=O)NC(C)(C)C(=O)N[C@@H](CC(C)C)C(=O)N[C@@H](CC(=O)O)C(=O)N[C@@H](CCCNC(=N)N)C(=O)NC(C)(C)C(=O)N[C@@H](C)C(=O)N[C@@H](CCC(N)=O)C(=O)NC(C)(C)C(=O)N[C@@H](CCCCNC(=O)COCCOCCNC(=O)COCCOCCNC(=O)CC[C@H](NC(=O)CC[C@H](NC(=O)CCCCCCCCCCCCCCCCCCC(=O)O)C(=O)O)C(=O)O)C(=O)N[C@@H](Cc1ccccc1)C(=O)N[C@H](C(=O)N[C@@H](CC(N)=O)C(=O)N[C@@H](Cc1c[nH]c2ccccc12)C(=O)N[C@@H](CC(C)C)C(=O)N[C@@H](CC(C)C)C(=O)N[C@@H](C)C(=O)N[C@@H](CCC(N)=O)C(=O)N[C@@H](CCCNC(=N)N)C(=O)NCC(=O)O)C(C)C)[C@@H](C)CC` [Compound 159] (H-[NMeY][Aib]EGTFISDYSI[Aib]LDR[Aib]AQ[Aib]K([AEEA-AEEA-γGlu-γGlu-C20 diacid])FVNWLLAQRG-OH) gave a solubility (pH 7.4) of at least 15 mg/mL and a solubility (pH 7.4, aqueous buffer) of at least 30 mg/mL.

Compound `CC[C@H](C)[C@H](NC(=O)[C@H](CO)NC(=O)[C@H](Cc1ccc(O)cc1)NC(=O)[C@H](CC(=O)O)NC(=O)[C@H](CO)NC(=O)[C@@H](NC(=O)[C@H](Cc1ccccc1)NC(=O)[C@@H](NC(=O)CNC(=O)[C@H](CCC(=O)O)NC(=O)C(C)(C)NC(=O)[C@@H](N)Cc1ccc(O)cc1)[C@@H](C)O)[C@@H](C)CC)C(=O)N[C@@H](C)C(=O)N[C@@H](CC(C)C)C(=O)N[C@@H](CC(=O)O)C(=O)N[C@@H](CCCCN)C(=O)N[C@H](C(=O)N[C@@H](CCCCNC(=O)COCCOCCNC(=O)COCCOCCNC(=O)CC[C@H](NC(=O)CCCCCCCCCCCCCCCCC(=O)O)C(=O)O)C(=O)N[C@@H](CCC(N)=O)C(=O)NC(C)(C)C(=O)N[C@@H](CC(=O)O)C(=O)N[C@@H](Cc1ccccc1)C(=O)N[C@H](C(=O)N[C@@H](CCC(=O)O)C(=O)N[C@@H](Cc1c[nH]c2ccccc12)C(=O)N[C@@H](CC(C)C)C(=O)N[C@@H](CC(C)C)C(=O)N[C@@H](C)C(=O)N[C@@H](CCC(N)=O)C(=O)N[C@@H](CCCNC(=N)N)C(=O)NCC(=O)O)C(C)C)[C@@H](C)CC` [Compound 160] (H-Y[Aib]EGTFISDYSIALDKIK([AEEA-AEEA-γGlu-C18 diacid])Q[Aib]DFVEWLLAQRG-OH) has a solubility (pH 7.4) of at least 15 mg/mL and a solubility (pH 7.4, aqueous buffer) of at least 30 mg/mL.

`CC[C@H](C)[C@H](NC(=O)[C@H](CO)NC(=O)[C@H](Cc1ccc(O)cc1)NC(=O)[C@H](CC(=O)O)NC(=O)[C@H](CO)NC(=O)[C@@H](NC(=O)[C@H](Cc1ccccc1)NC(=O)[C@@H](NC(=O)CNC(=O)[C@H](CCC(=O)O)NC(=O)C(C)(C)NC(=O)[C@@H](N)Cc1ccc(O)cc1)[C@@H](C)O)[C@@H](C)CC)C(=O)N[C@@H](C)C(=O)N[C@@H](CC(C)C)C(=O)N[C@@H](CC(=O)O)C(=O)N[C@@H](CCCCN)C(=O)N[C@@H](C)C(=O)N[C@@H](CCCCNC(=O)COCCOCCNC(=O)COCCOCCNC(=O)CC[C@H](NC(=O)CCCCCCCCCCCCCCCCC(=O)O)C(=O)O)C(=O)N[C@@H](CCC(N)=O)C(=O)NC(C)(C)C(=O)N[C@@H](CC(=O)O)C(=O)N[C@@H](Cc1ccccc1)C(=O)N[C@H](C(=O)N[C@@H](CCC(=O)O)C(=O)N[C@@H](Cc1c[nH]c2ccccc12)C(=O)N[C@@H](CC(C)C)C(=O)N[C@@H](CC(C)C)C(=O)N[C@@H](C)C(=O)N[C@@H](CCC(N)=O)C(=O)N[C@@H](CCCNC(=N)N)C(=O)NCC(=O)O)C(C)C` [Compound 161] (H-Y[Aib]EGTFISDYSIALDKAK([AEEA-AEEA-γGlu-C18 diacid])Q[Aib]DFVEWLLAQRG-OH) showed a solubility (pH 7.4) of at least 15 mg/mL and a solubility (pH 7.4, aqueous buffer) of at least 30 mg/mL.

In the case of `CC[C@H](C)[C@H](NC(=O)[C@H](CO)NC(=O)[C@H](Cc1ccc(O)cc1)NC(=O)[C@H](CC(=O)O)NC(=O)[C@H](CO)NC(=O)[C@@H](NC(=O)[C@H](Cc1ccccc1)NC(=O)[C@@H](NC(=O)CNC(=O)[C@H](CCC(=O)O)NC(=O)C(C)(C)NC(=O)[C@@H](N)Cc1ccc(O)cc1)[C@@H](C)O)[C@@H](C)CC)C(=O)N[C@@H](C)C(=O)N[C@@H](CC(C)C)C(=O)N[C@@H](CC(=O)O)C(=O)N[C@@H](CCCCN)C(=O)NC(C)(C)C(=O)N[C@@H](CCCCNC(=O)COCCOCCNC(=O)COCCOCCNC(=O)CC[C@H](NC(=O)CCCCCCCCCCCCCCCCC(=O)O)C(=O)O)C(=O)N[C@@H](CCC(N)=O)C(=O)N[C@@H](C)C(=O)N[C@@H](CC(=O)O)C(=O)N[C@@H](Cc1ccccc1)C(=O)N[C@H](C(=O)N[C@@H](CCC(=O)O)C(=O)N[C@@H](Cc1c[nH]c2ccccc12)C(=O)N[C@@H](CC(C)C)C(=O)N[C@@H](CC(C)C)C(=O)N[C@@H](C)C(=O)N[C@@H](CCC(N)=O)C(=O)N[C@@H](CCCNC(=N)N)C(=O)NCC(=O)O)C(C)C` [Compound 162] (H-Y[Aib]EGTFISDYSIALDK[Aib]K([AEEA-AEEA-γGlu-C18 diacid])QADFVEWLLAQRG-OH), the solubility (pH 7.4) was at least 15 mg/mL and the solubility (pH 7.4, aqueous buffer) was at least 30 mg/mL.

With `CC[C@H](C)[C@H](NC(=O)[C@H](CO)NC(=O)[C@H](Cc1ccc(O)cc1)NC(=O)[C@H](CC(=O)O)NC(=O)[C@H](CO)NC(=O)[C@@H](NC(=O)[C@H](Cc1ccccc1)NC(=O)[C@@H](NC(=O)CNC(=O)[C@H](CCC(=O)O)NC(=O)C(C)(C)NC(=O)[C@@H](N)Cc1ccc(O)cc1)[C@@H](C)O)[C@@H](C)CC)C(=O)N[C@@H](C)C(=O)N[C@@H](CC(C)C)C(=O)N[C@@H](CC(=O)O)C(=O)N[C@@H](CCCCN)C(=O)NC(C)(C)C(=O)N[C@@H](CCCCNC(=O)COCCOCCNC(=O)COCCOCCNC(=O)CC[C@H](NC(=O)CCCCCCCCCCCCCCCCC(=O)O)C(=O)O)C(=O)N[C@@H](CCC(N)=O)C(=O)N[C@@H](C)C(=O)N[C@@H](CC(N)=O)C(=O)N[C@@H](Cc1ccccc1)C(=O)N[C@H](C(=O)N[C@@H](CCC(=O)O)C(=O)N[C@@H](Cc1c[nH]c2ccccc12)C(=O)N[C@@H](CC(C)C)C(=O)N[C@@H](CC(C)C)C(=O)N[C@@H](C)C(=O)N[C@@H](CCC(N)=O)C(=O)N[C@@H](CCCNC(=N)N)C(=O)NCC(=O)O)C(C)C` [Compound 163] (H-Y[Aib]EGTFISDYSIALDK[Aib]K([AEEA-AEEA-γGlu-C18 diacid])QANFVEWLLAQRG-OH) the solubility (pH 7.4) was at least 15 mg/mL and the solubility (pH 7.4, aqueous buffer) was at least 30 mg/mL.
